Data set [1] is described as follows: Bupivacaine release from FeCl3-crosslinked gels (HPLC). The class given is physicochemical. The note with it: FeCl3-crosslinked 4% (w/v) gel with bupivacaine hydrochloride monohydrate, 2% SDS in PBS pH 7.4, 37° C. On the procedure: Sodium hyaluronate (1.4 m3/kg, approx. 800 kDa) and HA derivatives comprising mercaptosuccinic acid and thiophenol, as described in Example 60 and 61, were diluted to 4% (w/v) concentrations in deionized water and mixed with bupivacaine hydrochloride monohydrate (Sigma Aldrich B5274). The polymers were crosslinked using the addition of 2% FeCl3 solution in deionized water for 1:1 linking of carboxyl groups of sodium hyaluronate and chloride of FeCl3 and pH of the gels was adjusted to 6.5-7.5 using 0.25M NaOH solution. The release study buffer applied to each sample consisted of 2% (w/v) sodium dodecyl sulfate (SDS) dissolved in Phosphate buffered saline (pH 7.4, Sigma P3813). All samples were incubated at 37° C. and sampled for testing over 96 hours. For each timepoint, 0.25 ml of the sample was combined with 5 ml MeOH and then filtered through a 0.45 μm filter prior to analyzing using HPLC with a C18 column and 30:70 phosphate buffer (pH 5.0):methanol as mobile phase at 0.6 ml/min flow rate. The chromatogram was collected using a photodiode array detector at 205 nm and the amount of bupivacaine released was calculated from integral value of peak at the retention time of 7.1 minutes based on calibration performed previously.

Data set [2] in a line: Vancomycin hydrochloride release from FeCl3-crosslinked gels (HPLC). The data set is classed as physicochemical. To be noted: FeCl3-crosslinked 4% (w/v) gel, vancomycin hydrochloride 10% (w/w), PBS pH 7.4, 37° C. On the procedure: Sodium hyaluronate (1.4 m3/kg, approx. 800 kDa) and HA derivatives comprising mercaptosuccinic acid and thiophenol, as described in Example 59 and 60 were diluted to 4% (w/v) concentrations in deionized water and mixed with vancomycin hydrochloride (Sigma Aldrich PHR1732) at 10% (w/w) loading. The polymers were crosslinked using the addition of 2% FeCl3 solution (crosslinking agent) in deionized water for 1:1 linking of carboxyl groups of sodium hyaluronate and chloride of FeCl3 and pH of the gels was adjusted to 6.5-7.5 using 0.25M NaOH solution. The release study buffer applied to each sample consisted of phosphate buffered saline (pH 7.4, Sigma P3813). […] For each timepoint, 0.25 ml of the sample was combined with 5 ml H2O and then filtered through a 0.45 μm filter prior to analyzing using HPLC with a C18 column and 85:15 phosphate buffer (pH 3.0):methanol as mobile phase at 0.8 ml/min flow rate. The chromatogram was collected using a photodiode array detector at 205 nm and the amount of vancomycin hydrochloride released was calculated from integral value of peak at the retention time of 11.3 minutes based on calibration performed previously.

Experimental findings from US12351656B2, “Functionalized and crosslinked polymers” (PMIDG, LLC, priority 2017, dated 2025) are described below.

Where a name gives a salt, the structure may show the parent alone.

As for `CCCCN1CCCCC1C(=O)Nc1c(C)cccc1C` (centres unmarked) [Bupivacaine, bupivacaine hydrochloride monohydrate], the “% Bupivacaine Released” value in data set [1] (0 hours) is reported as 0.00%; in data set [1] (1 hour) it was 72.54%; in data set [1] (3 hours), 70.10%; in data set [1] (6 hours), 71.43%; in data set [1] (24 hours) it was 83.46%.
Turning to `CN[C@H](CC(C)C)C(=O)N[C@H]1C(=O)N[C@@H](CC(N)=O)C(=O)N[C@H]2C(=O)N[C@H]3C(=O)N[C@H](C(=O)N[C@H](C(=O)O)c4cc(O)cc(O)c4-c4cc3ccc4O)[C@H](O)c3ccc(c(Cl)c3)Oc3cc2cc(c3O[C@@H]2O[C@H](CO)[C@@H](O)[C@H](O)[C@H]2O[C@H]2C[C@](C)(N)[C@H](O)[C@H](C)O2)Oc2ccc(cc2Cl)[C@H]1O` [Vancomycin, vancomycin hydrochloride], the “% Vancomycin Hydrochloride Release” value in data set [2] (0 hours) is recorded as 0.00%; in data set [2] (1 hour), 98.03%; in data set [2] (3 hours), 95.40%; in data set [2] (6 hours) it was 92.08%; in data set [2] (24 hours), 90.70%; in data set [2] (96 hours), 72.11%.
